ChEMBL document CHEMBL1141272, “Eujavanicols A-C, decalin derivatives from Eupenicillium javanicum” (J Nat Prod, 2007)
Active and inactive are the calls of the source. The rule behind the calls is not given here.

Each compound was assayed on Aspergillus fumigatus (assay: Antifungal activity against Aspergillus fumigatus).
Format: functional, organism-based

SMILES	Activity
CC[C@@H](C)[C@H]1C=C[C@H]2[C@H](O)[C@@H](O)C[C@@H](C)[C@@H]2[C@@]1(C)C(=O)CCO	inactive
CC[C@@H](C)C1=CC(=O)[C@H]2[C@H](O)[C@H](O)C[C@@H](C)[C@@H]2[C@@]1(C)C(=O)CCO	inactive
CC[C@@H](C)[C@H]1C=C[C@H]2[C@H](O)[C@H](O)C[C@@H](C)[C@@H]2[C@@]1(C)C(=O)CCO	inactive
